{
  "source": "paper PMC7309225",
  "about": "“Synthesis, Biodistribution, and Radiation Dosimetry of a Novel mGluR5 Radioligand: ^18F-AZD9272” (ACS Chemical Neuroscience, 2020)",
  "origin": "cited, not measured here",
  "key": {"mGluR5": {"test_system": "mGluR5", "design": "method as in PMID 29608920", "details": "2TC, cited from earlier work"}, "[1]": {"test_system": "monoamine oxidase-B (MAO-B)", "design": "method as in PMID 23541825", "details": "human brain stem, thalamus, amygdala, cerebellum, and ventral striatum; cited from earlier work"}},
  "note": "Where two headings read alike, the source gives them in different places.",
  "data": [
    {"smiles": "N#Cc1cc(F)cc(-c2nc(-c3ccc(F)cn3)no2)c1", "note": "[^11C-AZD9272]", "values": [
      {"measurement": "VT", "setting": "mGluR5; occipital cortex", "value": 6.5, "unit": "mL/cm^3"},
      {"measurement": "VT", "setting": "mGluR5; ventral striatum", "value": 18.0, "unit": "mL/cm^3"},
      {"measurement": "MAO-B component of binding", "setting": "[1]", "value": "90–95%"}
    ]}
  ]
}
